≈ marks a conversion by molar mass, not a printed value. Read-outs that look alike come from different tables or passages of the source.
How the values were obtained:
PqsR [1] = molecular target: T1, PqsR (Pseudomonas aeruginosa, UniProt Q9I4X0); test: PqsR β-galactosidase reporter-gene assay in E. coli DH5α; type: cell-based; settings: for IC50 PqsR: E. coli reporter-gene assay, result in words
T1 construct: which expresses PqsR and the β-galactosidase LacZ under the control of the pqsA promoter; expressed in transfected cells; host or cells: E. coli DH5α carrying plasmid pEAL08-2
T1 sequence (Q9I4X0 whole entry): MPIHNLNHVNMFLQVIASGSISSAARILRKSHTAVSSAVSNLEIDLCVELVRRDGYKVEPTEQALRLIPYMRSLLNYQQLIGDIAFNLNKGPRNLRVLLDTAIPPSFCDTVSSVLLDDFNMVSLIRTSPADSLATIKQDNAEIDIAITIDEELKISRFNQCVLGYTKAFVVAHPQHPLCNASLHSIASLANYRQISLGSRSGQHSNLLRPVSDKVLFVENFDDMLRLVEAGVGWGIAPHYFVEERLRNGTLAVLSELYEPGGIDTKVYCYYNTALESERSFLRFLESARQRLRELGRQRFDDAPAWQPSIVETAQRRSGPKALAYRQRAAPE
Description: 3. Primary Activity Assays
The inverse agonistic/antagonistic activity of potential PqsR ligands was evaluated in a β-galactosidase reporter gene assay in E. coli as previously described.[3] In short, test compounds were co-incubated with E. coli DH5α cells containing the plasmid pEAL08-2,[4] which expresses PqsR and the β-galactosidase LacZ under the control of the pqsA promoter.
The inverse agonistic/antagonistic activity of compounds was measured in the presence of 50 nM PQS. After incubation, galactosidase activity was quantified photometrically and expressed as ratio of controls. The given IC50 values represent the mean of at least two independent experiments using at least eight different concentrations of test compound with n = 4. Non-linear regression analysis was performed using OriginPro 2020. […]

[2] = tested on: pyocyanin production in PA14 wt; test: Pyocyanin assay in PA14 wt; type: cell-based; settings: Pseudomonas aeruginosa, PA14, read-out: IC50 pyocyanin
Description: The pyocyanin inhibitory effect of the synthesized compounds and the compound (4) loaded SqNPs on PA14 wt were investigated by pyocyanin assay as described in previous work.[2,5] Briefly, PA14 wt was grown in PPGAS medium, overnight, at 37 °C, shaking at 200 rpm. The bacterial suspension was then centrifuged at 7.450 g, washed twice and diluted to a final OD600 (absorption at 600 nm) of 0.02 (2∙10^7 CFU/mL) in fresh PPGAS. 1.5 mL of the […]
(1 picture or pasted object on this page, not shown here) […]
culture was distributed in each well of the 24 well-plate. The free synthesized QSI prepared in DMSO, compound (4) loaded SqNPs were supplemented to bacteria-containing wells (1:100 dilutions). PA14 wt treated with either PBS or drug-free SqNPs (200 μg/mL) served as controls. Following 16 h incubation under aerobic conditions, pyocyanin in 900 μL of bacteria culture was extracted with chloroform and re-extracted with 0.2 M HCl. Pyocyanin production level was measured as the absorption at 520 nm, which was normalized to cell growth measured as OD600. 0.2 M HCl served as blank samples. Three independent experiments were conducted in triplicate. Non-linear regression analysis was performed using […]
(4) loaded SqNPs on PA14 wt. The pyocyanin inhibitory efficacy was improved by a factor of […]
It is noted that as reported in our prior
Figure S2. The production of pyocyanin levels compared to control PA14 wide type (wt) of the samples treated with 200 μg/mL drug free SqNPs. Three independent experiments were conducted in triplicate. […]
(also on this page, place not known: ( 4) -containing -free bacteria re -extracted compo und ( 4) (IC 50 nM ) (IC 50 nM ). drug P A14 5,6,7,8 -tetradeutero-2-heptyl-4(1H)-quinolone standa rd -40 -20 0 20 40 60 80 100 120 0.005 0.05 0.5 pyo production inhibition [%] Compound concentration loaded SqNPs [µM] IC50 = 100 ± 0.018 [nM])

[3] = Kinetic turbidimetric solubility assay; type: physicochemical; settings: PBS, aqueous buffer, kinetic from dmso stock, read-out: Kinetic solubility S kin
Description: 5.4. Kinetic Turbidimetric Solubility Assay
The desired compounds were sequentially diluted in DMSO in a 96-well plate. A 3 µL of each well were transferred into another three 96-well plates, followed by addition of 147 µL of PBS. Plates were shaken for 5 min at 600 rpm at room temperature (r.t.), and the absorbance at 620 nm was measured. Absorbance values were normalized by blank […]
subtraction and plotted using GraphPad Prism 8.4.2 (GraphPad Software, San Diego, CA, […]

[4] = Metabolic stability half-life (matrix not given); type: in vitro ADME; settings: matrix not stated; read-out: metabolic stability half-life t 1/2
Description: First, we evaluated the most promising compounds considering in vitro pharmacokinetic properties such as solubility and metabolic stability. […] Compounds 4 and 19 were moderately stable with half‐lives of 10 and 19 min, respectively.

PqsR [5] = molecular target: T1, PqsR; settings: read-out: IC50 (PqsR); Figure 1B, earlier hits; cited from earlier work

SMILES	IC50 (PqsR [1]) [nM]	IC50 [2] [nM]	other results
FC(F)(F)c1cc(NCc2cn(-c3ccc(Nc4ccccc4)cc3)nn2)ccn1 [Compound 15]	31	1060	
FC(F)(F)Oc1ccc(-n2cc(CNc3ccnc(C(F)(F)F)c3)nn2)cc1Cl [Compound 18]	15	438	solubility kinetic at 5 min [3]: 31.3 µM (≈ 13.7 µg/mL); half-life [4]: 55 min
FC(F)(F)c1ccc(-n2cc(CNc3ccnc(C(F)(F)F)c3)nn2)cc1 [Compound 13]	129	> 5000	
FC(F)(F)Oc1ccc(-n2cc(CNc3ccnc(C(F)(F)F)c3)nn2)cc1 [Compound 12]	30	1180	
Fc1cccc(-n2cc(CNc3ccnc(C(F)(F)F)c3)nn2)c1 [Compound 5]		> 5000	IC50 PqsR (PqsR [1]): inactive
N#Cc1ccc(-n2cc(CNc3ccnc(C(F)(F)F)c3)nn2)cc1 [Compound 14]	655	> 10000	
FC(F)(F)c1cc(NCc2cn(-c3ccccc3Cl)nn2)ccn1 [Compound 7]		> 5000	IC50 PqsR (PqsR [1]): inactive
Fc1ccc(-n2cc(CNc3ccnc(C(F)(F)F)c3)nn2)cc1 [Compound 3]	196	> 5000	
Oc1ccc(-n2cc(CNc3ccnc(C(F)(F)F)c3)nn2)cc1 [Compound 10]			IC50 PqsR (PqsR [1]): inactive ^a)
FC(F)(F)c1cc(NCc2cn(-c3ccc(Oc4ccccc4)c(Cl)c3)nn2)ccn1 [Compound 19]	12	181	half-life [4]: 19 min
Nc1cc(NCc2cn(-c3ccc(Oc4ccccc4)cc3)nn2)cc(C(F)(F)F)n1 [Compound 20]		351	solubility kinetic at 5 min [3]: 13 µM (≈ 5.54 µg/mL)
FC(F)(F)c1cc(NCc2cn(-c3ccc(Cl)cc3)nn2)ccn1 [Compound 9]	79	7730	
FC(F)(F)c1cc(NCc2cn(-c3ccc(Cl)c(Cl)c3)nn2)ccn1 [Compound 16]	24	354	
COc1ccc(-n2cc(CNc3ccnc(C(F)(F)F)c3)nn2)cc1 [Compound 11]	81	2500	
Nc1cccc(C(F)(F)F)n1 [Compound 1]			IC50 (PqsR [5]): 33.1 µM
Fc1ccccc1-n1cc(CNc2ccnc(C(F)(F)F)c2)nn1 [Compound 6]		> 10000	IC50 PqsR (PqsR [1]): inactive
FC(F)(F)c1cc(NCc2cn(-c3cccc(Cl)c3)nn2)ccn1 [Compound 8]	123	> 2500	
